These results are taken from US20260337208A1, “HETEROCYCLIC DERIVATIVES AS JANUS KINASE INHIBITORS” (CHIESI FARMACEUTICI S.P.A., priority 2022, published 2026).

A value given as a limit tells only on which side of the number the result lay.

One assay has as its system OVA-challenged mice. Conditions: given as dry powder; cited from earlier work.
Assay [1] has as its system mouse model of chronic exposure to AAH allergens. The following applies: cited from earlier work.
Another assay concerns the target JAK1 (Homo sapiens, UniProt P23458). Kind of assay: Biochemical potency on JAK1, TR-FRET (LANCE Ultra kinase assay). The following applies: ATP corresponding to Km; cell-free; read-out: JAK1 inhibitory activity (pIC50) (converted). Summed up: (§1)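 ULight-JAK-1 (Tyr1023) peptide phosphorylation at Km ATP, 1.5 h r.t.; substrate solution held peptide 30/50/20/10 nM and ATP 20/0.7/0.2/12 μM, enzyme solution 0.15/0.083/0.025/0.144 ng/μL (JAK1/JAK2/JAK3/TYK2). EDTA stop, Eu-PT66 antibody TR-FRET read at 665 nm; 11-point 5-fold dilutions from 20 μM; IC50 by variable-slope fit.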
(TR-FRET usually uses a lanthanide donor and a delayed reading to cut background.)

The next assay addresses JAK2 (Homo sapiens, UniProt O60674). In words: Biochemical potency on JAK2, TR-FRET (LANCE Ultra kinase assay). Conditions: ATP corresponding to Km; cell-free; read-out: JAK2 inhibitory activity (pIC50) (converted). Summed up:
as §1

Another assay deals with T1, JAK3 (Homo sapiens, UniProt P52333).
T1 sequence (P52333 1-1124): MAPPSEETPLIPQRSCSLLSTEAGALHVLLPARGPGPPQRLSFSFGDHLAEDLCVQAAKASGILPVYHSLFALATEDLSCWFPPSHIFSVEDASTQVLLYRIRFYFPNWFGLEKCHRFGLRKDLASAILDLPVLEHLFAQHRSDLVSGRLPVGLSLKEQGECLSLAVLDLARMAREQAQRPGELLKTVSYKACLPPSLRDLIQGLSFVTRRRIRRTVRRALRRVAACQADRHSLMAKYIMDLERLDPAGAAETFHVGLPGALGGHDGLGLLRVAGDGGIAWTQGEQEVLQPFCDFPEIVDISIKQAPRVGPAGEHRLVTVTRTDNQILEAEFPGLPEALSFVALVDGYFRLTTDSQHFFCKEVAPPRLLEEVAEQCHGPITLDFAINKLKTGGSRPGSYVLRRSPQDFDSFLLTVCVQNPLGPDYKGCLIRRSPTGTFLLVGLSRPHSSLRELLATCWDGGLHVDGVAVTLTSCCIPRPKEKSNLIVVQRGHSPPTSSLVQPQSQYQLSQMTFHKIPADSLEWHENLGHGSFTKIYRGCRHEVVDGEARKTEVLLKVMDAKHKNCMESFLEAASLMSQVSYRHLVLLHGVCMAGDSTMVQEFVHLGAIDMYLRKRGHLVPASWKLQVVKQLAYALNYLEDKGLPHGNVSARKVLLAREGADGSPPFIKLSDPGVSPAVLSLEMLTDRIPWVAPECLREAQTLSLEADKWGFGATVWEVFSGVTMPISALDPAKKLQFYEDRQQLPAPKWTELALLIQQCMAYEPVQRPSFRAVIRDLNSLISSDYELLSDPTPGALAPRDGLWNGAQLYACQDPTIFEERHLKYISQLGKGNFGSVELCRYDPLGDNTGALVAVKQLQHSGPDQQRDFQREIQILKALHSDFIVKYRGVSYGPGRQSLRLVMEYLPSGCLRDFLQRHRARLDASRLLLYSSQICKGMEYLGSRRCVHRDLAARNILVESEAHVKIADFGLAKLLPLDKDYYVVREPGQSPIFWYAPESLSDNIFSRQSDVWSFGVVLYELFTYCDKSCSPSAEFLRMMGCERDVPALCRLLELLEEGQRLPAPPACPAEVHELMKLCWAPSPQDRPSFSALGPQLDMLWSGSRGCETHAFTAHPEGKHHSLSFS
In words: Biochemical potency on JAK3, TR-FRET (LANCE Ultra kinase assay). The following applies: ATP corresponding to Km; cell-free; read-out: JAK3 inhibitory activity (pIC50) (converted). In short, it runs like this: as §1

The target of another assay is TYK2 (Homo sapiens, UniProt P29597). Kind of assay: Biochemical potency on Tyk2, TR-FRET (LANCE Ultra kinase assay). Conditions: ATP corresponding to Km; cell-free; read-out: TYK2 inhibitory activity (pIC50) (converted). In short, it runs like this:
as §1

The test system of assay [2] is pSTAT6 in BEAS-2B human cell line. Kind of assay: Inhibition of IL-13 induced pSTAT6 in BEAS. The following applies: for IC50: Homo sapiens, BEAS-2B, 0.5 h, IL-13 trigger, 30 min, parent compound; for Fold difference parent vs predicted acid metabolite: ratio=IC50 predicted acid metabolite/IC50 ester. In kind it is cell-based. Summed up:
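BEAS-2B cells grown 48 h, pre-treated 30 min with compound, then stimulated 30 min with IL-13. Lysate pSTAT6 (Tyr641) measured by sandwich ELISA. Eleven 5-fold dilutions from 10 μM, in duplicate, fitted to IC50.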

Sequence of JAK1 (P23458 whole entry): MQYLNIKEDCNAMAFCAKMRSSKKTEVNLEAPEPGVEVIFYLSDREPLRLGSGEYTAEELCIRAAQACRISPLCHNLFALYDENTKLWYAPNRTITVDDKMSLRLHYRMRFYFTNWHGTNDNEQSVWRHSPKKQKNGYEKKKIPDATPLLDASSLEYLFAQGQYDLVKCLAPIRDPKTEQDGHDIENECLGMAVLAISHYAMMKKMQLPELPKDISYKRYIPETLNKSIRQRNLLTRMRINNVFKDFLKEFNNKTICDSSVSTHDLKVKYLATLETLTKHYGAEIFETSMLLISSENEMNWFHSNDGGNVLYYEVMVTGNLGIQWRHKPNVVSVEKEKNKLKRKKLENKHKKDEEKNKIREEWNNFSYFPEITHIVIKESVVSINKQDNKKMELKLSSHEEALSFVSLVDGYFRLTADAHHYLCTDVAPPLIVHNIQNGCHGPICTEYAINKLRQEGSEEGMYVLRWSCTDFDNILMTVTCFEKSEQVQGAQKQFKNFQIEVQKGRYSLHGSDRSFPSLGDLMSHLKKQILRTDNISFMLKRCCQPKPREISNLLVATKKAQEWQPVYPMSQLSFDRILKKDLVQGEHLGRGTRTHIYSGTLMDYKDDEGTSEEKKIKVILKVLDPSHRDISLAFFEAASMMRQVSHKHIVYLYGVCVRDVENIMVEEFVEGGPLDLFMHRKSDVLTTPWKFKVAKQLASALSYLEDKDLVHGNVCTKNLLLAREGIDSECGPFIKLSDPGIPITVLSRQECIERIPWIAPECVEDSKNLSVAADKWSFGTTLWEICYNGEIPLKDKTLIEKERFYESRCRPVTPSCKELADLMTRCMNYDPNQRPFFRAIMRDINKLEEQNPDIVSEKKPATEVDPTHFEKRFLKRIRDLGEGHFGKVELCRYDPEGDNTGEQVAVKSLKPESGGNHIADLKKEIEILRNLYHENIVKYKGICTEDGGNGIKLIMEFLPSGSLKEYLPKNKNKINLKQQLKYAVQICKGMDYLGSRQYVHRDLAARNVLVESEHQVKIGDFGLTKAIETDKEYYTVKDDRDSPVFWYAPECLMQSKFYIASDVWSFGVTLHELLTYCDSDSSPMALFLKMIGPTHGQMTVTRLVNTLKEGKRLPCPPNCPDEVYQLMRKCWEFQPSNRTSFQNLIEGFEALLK
Sequence of JAK2 (O60674 whole entry): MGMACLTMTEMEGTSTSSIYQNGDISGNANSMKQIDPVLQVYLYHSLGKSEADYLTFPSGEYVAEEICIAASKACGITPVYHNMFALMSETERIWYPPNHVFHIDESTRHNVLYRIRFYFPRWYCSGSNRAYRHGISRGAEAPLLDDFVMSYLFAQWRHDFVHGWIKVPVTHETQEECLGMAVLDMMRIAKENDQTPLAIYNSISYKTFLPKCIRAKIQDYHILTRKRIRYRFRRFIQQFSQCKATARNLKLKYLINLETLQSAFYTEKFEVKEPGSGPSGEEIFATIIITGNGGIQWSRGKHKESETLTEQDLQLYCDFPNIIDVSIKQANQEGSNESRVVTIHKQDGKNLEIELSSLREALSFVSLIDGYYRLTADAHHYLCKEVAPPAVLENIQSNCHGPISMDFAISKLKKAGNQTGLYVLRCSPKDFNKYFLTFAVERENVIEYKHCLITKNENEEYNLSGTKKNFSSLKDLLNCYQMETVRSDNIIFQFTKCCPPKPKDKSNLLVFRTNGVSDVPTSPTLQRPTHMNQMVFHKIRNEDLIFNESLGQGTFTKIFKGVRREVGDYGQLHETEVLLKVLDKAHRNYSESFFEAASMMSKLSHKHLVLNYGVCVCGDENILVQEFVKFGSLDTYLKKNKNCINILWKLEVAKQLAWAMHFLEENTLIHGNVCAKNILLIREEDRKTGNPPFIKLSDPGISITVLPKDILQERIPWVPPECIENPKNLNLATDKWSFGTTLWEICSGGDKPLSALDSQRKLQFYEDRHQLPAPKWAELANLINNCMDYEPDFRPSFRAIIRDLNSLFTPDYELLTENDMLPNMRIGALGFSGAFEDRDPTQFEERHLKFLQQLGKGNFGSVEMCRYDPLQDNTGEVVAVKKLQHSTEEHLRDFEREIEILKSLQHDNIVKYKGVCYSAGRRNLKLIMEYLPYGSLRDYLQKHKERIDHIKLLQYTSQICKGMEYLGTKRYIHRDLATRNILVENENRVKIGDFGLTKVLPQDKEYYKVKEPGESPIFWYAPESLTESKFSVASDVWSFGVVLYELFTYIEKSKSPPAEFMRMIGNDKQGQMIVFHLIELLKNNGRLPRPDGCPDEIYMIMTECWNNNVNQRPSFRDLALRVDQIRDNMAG
Sequence of TYK2 (P29597 whole entry): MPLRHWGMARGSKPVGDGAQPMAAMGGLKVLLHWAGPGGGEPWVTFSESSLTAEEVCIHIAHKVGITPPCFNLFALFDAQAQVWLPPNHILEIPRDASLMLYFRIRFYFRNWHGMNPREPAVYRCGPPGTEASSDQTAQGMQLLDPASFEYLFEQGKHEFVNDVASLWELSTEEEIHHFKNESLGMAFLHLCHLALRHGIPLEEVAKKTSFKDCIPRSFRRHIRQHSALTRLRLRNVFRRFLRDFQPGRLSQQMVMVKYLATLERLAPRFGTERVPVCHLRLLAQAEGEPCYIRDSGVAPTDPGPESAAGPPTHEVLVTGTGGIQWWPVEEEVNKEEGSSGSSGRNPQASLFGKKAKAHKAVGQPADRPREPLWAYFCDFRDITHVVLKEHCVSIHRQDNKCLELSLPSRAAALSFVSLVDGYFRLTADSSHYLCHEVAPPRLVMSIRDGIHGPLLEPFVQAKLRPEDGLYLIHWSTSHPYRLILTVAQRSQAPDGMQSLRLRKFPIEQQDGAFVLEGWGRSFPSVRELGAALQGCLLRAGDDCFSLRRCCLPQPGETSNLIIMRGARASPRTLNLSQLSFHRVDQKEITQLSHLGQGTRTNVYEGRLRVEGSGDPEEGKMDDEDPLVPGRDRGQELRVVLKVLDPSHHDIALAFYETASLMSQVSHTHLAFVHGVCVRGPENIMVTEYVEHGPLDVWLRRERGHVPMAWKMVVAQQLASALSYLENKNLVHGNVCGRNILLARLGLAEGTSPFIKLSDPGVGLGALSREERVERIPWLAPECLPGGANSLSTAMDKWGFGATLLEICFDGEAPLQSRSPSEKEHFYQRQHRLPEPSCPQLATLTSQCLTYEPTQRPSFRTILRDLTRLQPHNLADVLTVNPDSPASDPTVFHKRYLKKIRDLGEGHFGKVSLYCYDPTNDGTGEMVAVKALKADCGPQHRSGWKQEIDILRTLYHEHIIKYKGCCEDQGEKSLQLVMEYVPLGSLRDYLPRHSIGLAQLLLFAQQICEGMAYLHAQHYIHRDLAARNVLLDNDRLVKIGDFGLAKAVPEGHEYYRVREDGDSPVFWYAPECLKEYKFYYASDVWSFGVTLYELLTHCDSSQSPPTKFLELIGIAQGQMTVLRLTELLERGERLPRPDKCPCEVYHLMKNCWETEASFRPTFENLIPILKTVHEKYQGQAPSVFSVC

In the case of `CN(CCC#N)C1CCN(C(=O)Cn2cc(NC(=O)c3cnn4cccnc34)c(-c3cc(Cl)ccc3OC(F)F)n2)CC1` [iJak-381], in the assay with OVA-challenged mice, the BAL eosinophilia result is “reduced”, the CCL11 entry is “reduced”, the Muc5AC result is reported as “reduced” and the airway resistance result is recorded as “reduced”. Also, in assay [1], the BAL eosinophilia result is on record as “reduced”, the CCL11 result is reported as “reduced”, the CXCL1 result is listed as “reduced” and the neutrophilia entry is on record as “reduced”.
Take `CCSC(=O)C1CCN(CCNC(=O)c2nn(-c3cc4c(cc3OC)NCCO4)c3cc(-c4cnn5cccnc45)ncc23)CC1` [Example 59, S-ethyl 1-(2-(1-(6-methoxy-3,4-dihydro-2H-benzo[b][1,4]oxazin-7-yl)-6-(pyrazolo[1,5-a]pyrimidin-3-yl)-1H-pyrazolo[4,3-c]pyridine-3-carboxamido)ethyl)piperidine-4-carbothioate]: the IC50 at JAK1 is at most 5.01 nM; on JAK2, at most 5.01 nM; on JAK3, at most 5.01 nM; on TYK2, 5.01 to 50.1 nM; in assay [2], at most 5.01 nM. The “Fold difference parent vs predicted acid metabolite” value in assay [2] is given as “kkkk (ratio≥200)”.
Regarding `COc1cc2c(cc1-n1nc(C(=O)OCCCN3CCN(C)CC3)c3cnc(-c4cnn5cccnc45)cc31)SCCN2` [Example 8, 3-(4-methylpiperazin-1-yl)propyl 1-(6-methoxy-3,4-dihydro-2H-benzo[b][1,4]thiazin-7-yl)-6-(pyrazolo[1,5-a]pyrimidin-3-yl)-1H-pyrazolo[4,3-c]pyridine-3-carboxylate], the IC50 was at most 5.01 nM at JAK1; at most 5.01 nM on JAK2; at most 5.01 nM at JAK3; at most 5.01 nM at TYK2; 5.01 to 50.1 nM in assay [2].
As to `CCOC(=O)COC(=O)Nc1nn(-c2cc3c(cc2OC)NCCO3)c2cc(-c3cnn4cccnc34)ncc12` [Example 39, ethyl 2-(((1-(6-methoxy-3,4-dihydro-2H-benzo[b][1,4]oxazin-7-yl)-6-(pyrazolo[1,5-a]pyrimidin-3-yl)-1H-pyrazolo[4,3-c]pyridin-3-yl)carbamoyl)oxy)acetate], the IC50 on JAK1 is at most 5.01 nM; on JAK2 it was at most 5.01 nM; on JAK3, at most 5.01 nM; on TYK2 it was 5.01 to 50.1 nM; in assay [2] it was 5.01 to 50.1 nM. Besides, in assay [2], the “Fold difference parent vs predicted acid metabolite” value is reported as “kkkk (ratio≥200)”.
On to `COCCOC(=O)C1CCN(CCNC(=O)c2nn(-c3cc4c(cc3OC)NCCO4)c3cc(-c4cnn5cccnc45)ncc23)CC1` [Example 16, 2-methoxyethyl 1-(2-(1-(6-methoxy-3,4-dihydro-2H-benzo[b][1,4]oxazin-7-yl)-6-(pyrazolo[1,5-a]pyrimidin-3-yl)-1H-pyrazolo[4,3-c]pyridine-3-carboxamido)ethyl)piperidine-4-carboxylate], for which the IC50 at JAK1 was at most 5.01 nM; on JAK2 it was at most 5.01 nM; on JAK3 it was at most 5.01 nM; at TYK2, 5.01 to 50.1 nM; in assay [2] it was at most 5.01 nM. In addition, the “Fold difference parent vs predicted acid metabolite” value in assay [2] was “kkkk (ratio≥200)”.
`COC(=O)[C@H]1CCN(CCNC(=O)c2nn(-c3cc4c(cc3OC)NCCO4)c3cc(-c4cnn5cccnc45)ncc23)C1` [Example 30, methyl (S)-1-(2-(1-(6-methoxy-3,4-dihydro-2H-benzo[b][1,4]oxazin-7-yl)-6-(pyrazolo[1,5-a]pyrimidin-3-yl)-1H-pyrazolo[4,3-c]pyridine-3-carboxamido)ethyl)pyrrolidine-3-carboxylate]: the IC50 at JAK1 was at most 5.01 nM; on JAK2 it was at most 5.01 nM; at JAK3, at most 5.01 nM; on TYK2, 5.01 to 50.1 nM; in assay [2] it was 5.01 to 50.1 nM. Moreover, the “Fold difference parent vs predicted acid metabolite” value in assay [2] was “kkkk (ratio≥200)”.
Consider `COc1cc2c(cc1-n1nc(C(=O)NCCCN3CCC(C(=O)OC4CCN(C)CC4)CC3)c3cnc(-c4cnn5cccnc45)cc31)OCCN2` [Example 26, 1-methylpiperidin-4-yl 1-(3-(1-(6-methoxy-3,4-dihydro-2H-benzo[b][1,4]oxazin-7-yl)-6-(pyrazolo[1,5-a]pyrimidin-3-yl)-1H-pyrazolo[4,3-c]pyridine-3-carboxamido)propyl)piperidine-4-carboxylate], for which the IC50 at JAK1 was 5.01 to 50.1 nM; on JAK2, at most 5.01 nM; at JAK3 it was at most 5.01 nM; on TYK2, 5.01 to 50.1 nM; in assay [2], 5.01 to 50.1 nM.
In the case of `CCOC(=O)[C@H]1[C@@H]2CN(CCNC(=O)c3nn(-c4cc5c(cc4OC)NCCO5)c4cc(-c5cnn6cccnc56)ncc34)C[C@@H]21` [Example 33, ethyl (1R,5S,6r)-3-(2-(1-(6-methoxy-3,4-dihydro-2H-benzo[b][1,4]oxazin-7-yl)-6-(pyrazolo[1,5-a]pyrimidin-3-yl)-1H-pyrazolo[4,3-c]pyridine-3-carboxamido)ethyl)-3-azabicyclo[3.1.0]hexane-6-carboxylate], the IC50 was at most 5.01 nM on JAK1; at most 5.01 nM at JAK2; at most 5.01 nM at JAK3; 5.01 to 50.1 nM on TYK2; 5.01 to 50.1 nM in assay [2].
Regarding `COc1cc2c(cc1-n1nc(C(=O)NCCN3CCC(CC(=O)O[C@@H]4CCN(CCF)C4)CC3)c3cnc(-c4cnn5cccnc45)cc31)OCCN2` [Example 52, (R)-1-(2-fluoroethyl)pyrrolidin-3-yl 2-(1-(2-(1-(6-methoxy-3,4-dihydro-2H-benzo[b][1,4]oxazin-7-yl)-6-(pyrazolo[1,5-a]pyrimidin-3-yl)-1H-pyrazolo[4,3-c]pyridine-3-carboxamido)ethyl)piperidin-4-yl)acetate], the IC50 at JAK1 is at most 5.01 nM; on JAK2 it was at most 5.01 nM; at JAK3, at most 5.01 nM; on TYK2 it was 5.01 to 50.1 nM; in assay [2], 5.01 to 50.1 nM. In assay [2], the “Fold difference parent vs predicted acid metabolite” value was “kkk (200>ratio≥100)”.
For `COc1cc2c(cc1-n1nc(C(=O)NCCN3CCC(C(=O)OCC(C)(C)N(C)C)CC3)c3cnc(-c4cnn5cccnc45)cc31)OCCN2` [Example 20, 2-(dimethylamino)-2-methylpropyl 1-(2-(1-(6-methoxy-3,4-dihydro-2H-benzo[b][1,4]oxazin-7-yl)-6-(pyrazolo[1,5-a]pyrimidin-3-yl)-1H-pyrazolo[4,3-c]pyridine-3-carboxamido)ethyl)piperidine-4-carboxylate], the IC50 on JAK1 is at most 5.01 nM; at JAK2 it was at most 5.01 nM; at JAK3, at most 5.01 nM; at TYK2, 5.01 to 50.1 nM; in assay [2] it was 5.01 to 50.1 nM. For the same compound, the “Fold difference parent vs predicted acid metabolite” value in assay [2] is given as “kkk (200>ratio≥100)”.
